# Reference: patent US20150250786A1, “PYRIMIDINE HYDROXY AMIDE COMPOUNDS AS PROTEIN DEACETYLASE INHIBITORS AND METHODS OF USE THEREOF” (THE TRUSTEES OF THE UNIVERSITY OF PENNSYLVANIA, priority 2012, published 2015)
# Like-named read-outs stand apart in the source and are kept apart here.
# What was measured:
# HDAC3 = HDAC3 (Homo sapiens, UniProt O15379); assay: HDAC enzyme assay, HDAC3
# [1] = test system: NIH Swiss mice; C57BL/6J HDAC6 WT and KO mice; assay: Tail suspension test (TST); type: in vivo, mouse; conditions: NIH Swiss mice
# [2] = test system: histone H3 lysine 9 acetylation; assay: Histone H3K9 acetylation in vivo (Western blot, ChIP); design: species or system mouse; conditions: in vivo treatment
# [3] = Body weight gain during chronic treatment; type: in vivo, mouse; conditions: 4 weeks of treatment
# [4] = test system: RN46A-B14 serotonergic cell line; assay: α-tubulin K40 acetylation in RN46A-B14 cells (Western blot); type: cell-based, rat; conditions: 4 hours; TSA 0.6 μM, others 2.5 μM
# Description: In FIG. 3, it was observed that subchronic treatment, consisting of 5 treatments at 48, 28, 24, 4 and ½ hours before sacrifice, led to greater increase in tubulin acetylation than did chronic treatment of 1 injection/day for 21 days. For cell culture, RN46B cells were treated for with 0.25, 2.5 or 25 μM drug in DMSO for 1, 4 or 24 hours as indicated. Tukey post-hoc analysis: * P=0.01 to 0.05, ** P=0.001-0.01, ***P<0.001 when compared with vehicle treatment.
# Results are shown as percent change normalized to the vehicle treatment condition. The horizontal hard line depicts average and the dotted lines depict SEM of the vehicle treated wells. Representative Western blot images are presented. […] Representative Western blot images are presented. […] The drugs (5 mg/kg) were administered subchronically (at 24 h, 4 h and 30 min prior to sacrifice) to HDAC6 KO and WT littermates. The changes in tubulin acetylation were measured in tissue lysates from cortex (ctx), hippocampus (Hpc), dorsal Raphe nucleus (DRN) and cerebellum (cb). The tubulin acetylation levels in drug-treated mice are expressed as percent change of the vehicle-treated mice of the corresponding genotype. The horizontal lines depict the average tubulin acetylation±SEM in the vehicle treated mice. The representative Western blot images show the changes induced by each drug treatment in the hippocampus (left column) and dorsal raphe (right column) of WT and HDAC6 KO mice.
# In contrast to the class I isoforms HDAC2 and 3, which are expressed highly and ubiquitously in the mouse brain, HDAC6 mRNA expression appears to be restricted to a small number of brain areas, with highest signal observed in DRN (FIG. 13f). […] No changes in total α-tubulin expression were detected (FIG. 14a).
# mice [5] = assay: Elevated plus maze (EPM); type: in vivo, mouse; conditions: acute administration
# mice [6] = assay: Marble-burying task; type: in vivo, mouse; conditions: acute administration
# [7] = test system: α-tubulin acetylation in mouse whole brain lysates; assay: α-tubulin acetylation in whole brain lysates after single i.p. administration; type: in vivo; conditions: compound 73 5 mg/kg, compound 101 50 mg/kg, tubastatin A 10 mg/kg, 30 min, 1 h, 4 h
# mice [8] = assay: Open-field test; type: in vivo, mouse
# HDAC2 = HDAC2 (Homo sapiens, UniProt Q92769); assay: HDAC enzyme assay, HDAC2
# Sequence of HDAC2 (Q92769 whole entry): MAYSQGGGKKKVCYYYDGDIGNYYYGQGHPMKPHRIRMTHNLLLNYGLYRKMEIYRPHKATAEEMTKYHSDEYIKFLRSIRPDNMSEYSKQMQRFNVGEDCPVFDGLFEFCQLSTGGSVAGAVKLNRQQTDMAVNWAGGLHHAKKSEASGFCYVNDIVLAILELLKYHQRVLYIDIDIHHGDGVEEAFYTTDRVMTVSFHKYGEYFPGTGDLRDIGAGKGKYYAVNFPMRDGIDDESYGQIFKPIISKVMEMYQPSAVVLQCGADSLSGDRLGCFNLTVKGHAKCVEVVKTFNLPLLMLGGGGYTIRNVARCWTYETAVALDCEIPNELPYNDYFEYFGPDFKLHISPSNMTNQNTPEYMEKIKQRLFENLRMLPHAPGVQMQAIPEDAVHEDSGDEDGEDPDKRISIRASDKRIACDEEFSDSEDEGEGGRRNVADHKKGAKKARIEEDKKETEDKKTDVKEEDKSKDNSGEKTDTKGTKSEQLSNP
# HDAC1 = HDAC1 (Homo sapiens, UniProt Q13547); assay: HDAC enzyme assay, HDAC1
# Sequence of HDAC1 (Q13547 whole entry): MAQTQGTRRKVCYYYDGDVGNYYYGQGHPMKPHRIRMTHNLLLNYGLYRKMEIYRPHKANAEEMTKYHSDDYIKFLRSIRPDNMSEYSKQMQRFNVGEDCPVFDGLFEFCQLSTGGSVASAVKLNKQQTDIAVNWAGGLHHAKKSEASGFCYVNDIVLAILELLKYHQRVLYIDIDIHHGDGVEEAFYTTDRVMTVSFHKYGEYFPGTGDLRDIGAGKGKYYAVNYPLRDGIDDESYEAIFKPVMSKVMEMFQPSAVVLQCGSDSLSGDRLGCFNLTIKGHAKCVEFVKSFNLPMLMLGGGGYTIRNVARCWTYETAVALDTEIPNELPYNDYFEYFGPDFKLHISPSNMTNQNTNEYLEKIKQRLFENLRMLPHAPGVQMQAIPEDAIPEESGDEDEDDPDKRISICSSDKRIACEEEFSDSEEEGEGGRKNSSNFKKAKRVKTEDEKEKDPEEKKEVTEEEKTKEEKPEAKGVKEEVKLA
# Sequence of HDAC3 (O15379 whole entry): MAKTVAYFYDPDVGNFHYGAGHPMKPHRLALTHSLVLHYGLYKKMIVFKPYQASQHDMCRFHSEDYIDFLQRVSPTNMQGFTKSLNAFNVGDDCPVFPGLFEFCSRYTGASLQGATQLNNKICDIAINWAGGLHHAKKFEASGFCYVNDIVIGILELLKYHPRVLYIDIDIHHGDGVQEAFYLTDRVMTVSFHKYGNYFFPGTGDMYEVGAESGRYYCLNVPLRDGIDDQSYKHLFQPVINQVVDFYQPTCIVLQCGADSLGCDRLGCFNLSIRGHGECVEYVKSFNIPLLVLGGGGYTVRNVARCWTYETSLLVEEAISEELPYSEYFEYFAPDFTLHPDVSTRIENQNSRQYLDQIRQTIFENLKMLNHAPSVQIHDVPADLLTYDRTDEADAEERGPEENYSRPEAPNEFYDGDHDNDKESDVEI
# Sequence of HDAC3 (Q9Y618 395-489 partner limits assumed): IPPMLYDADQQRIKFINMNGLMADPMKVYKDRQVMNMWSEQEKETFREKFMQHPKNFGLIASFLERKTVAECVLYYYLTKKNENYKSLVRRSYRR
smiles,measurement,setting,value
"O=C(NO)c1cnc(NC2(c3cccc(F)c3)CCCCC2)nc1 [Compound 101, 2-((1-(3-fluorophenyl)cyclohexyl)amino)-N-hydroxypyrimidine-5-carboxamide]",HDAC3 fold versus HDAC6 (in brackets),HDAC3,(1498.8x)
same,HDAC3 fold versus HDAC6 (in brackets),HDAC3; Table 3,1496 x
same,immobility in TST,[1]; 5 mg/kg,No significant effect
same,immobility in TST,"[1]; 50 mg/kg i.p., 30 minutes",Significant reductions
same,acetylation of histone 3 at lysine 9 in Western blot,[2],did not significantly alter
same,body weight gain,[3],no significant effect
same,acetylated (lysine 40) fraction of α-tubulin,[4],increases
same,behavioral changes / time in the open arms of the maze,mice [5],neither compound 73 nor compound 101 produced behavioral changes
same,number of marbles buried,mice [6],significantly reduced
same,α-tubulin acetylation in whole brain lysates,[7],significant increases
same,exploratory activity in novel open-field arena,"mice [8]; acute, compounds 73, 101 50 mg/kg, tubastatin A 10 mg/kg",hyperlocomotor effects
same,distance in the center of the open field,"mice [8]; mouse, in vivo",419±73 beam breaks
same,open-field exploration in neural cell selective HDAC6 KO mice,mice [8]; same doses (50 mg/kg),did not significantly alter
same,HDAC2 fold versus HDAC6 (in brackets),HDAC2,(343.2x)
same,HDAC2 fold versus HDAC6 (in brackets),HDAC2; Table 3,342 x
same,HDAC1 fold versus HDAC6 (in brackets),HDAC1; Table 3,283 x
same,HDAC1 fold versus HDAC6 (in brackets),HDAC1; selectivity HDAC6 over HDAC1,(283.5x)
